Results reported in US20060112494A1, “Method of protecting an animal skin product from metalloproteinase activity” (priority 2004, published 2006).
Read-outs that look alike come from different tables or passages of the source.

Assays:
[1] = tested on: mixed bacteria on fresh hide samples; set-up: Growth/Days 2 / Growth/Days 4: key to the marks not given beside the values; conditions: for Growth/Days 1: day 1; for Growth/Days 2: day 2; for Growth/Days 4: day 4;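 for all read-outs here: fresh hide pieces laid on inhibitor-containing nutrient agar supplemented with 0.5% Azocoll, incubated at 30 °C, then scored for growth of bacteria originating from the hide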
[2] = tested on: collagenase; conditions: for Collagenase Activity/Days 1: day 1; for Collagenase Activity/Days 2: day 2; for Collagenase Activity/Days 4: day 4; for Collagenase Activity/Days 7: day 7;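 for all read-outs here: nutrient agar containing 0.5% Azocoll with inhibitor, topped by a fresh hide piece, kept at 30 °C, collagenase from hide bacteria scored visually as clearing zone around growth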
Procedure: Nutrient agar amended with 0.5% AZOCOLL was used as the test medium to study collagenase activity. The nutrient agar was prepared and autoclaved and then was cooled to 55° C. Azocol was added to give a final concentration of 0.5%. […] Fresh hides were obtained from a tannery and were cut into pieces of approximately 2 cm square. One 2×2 cm hide sample was placed on top of the agar containing the inhibitors. Treated samples were incubated at 30° C. and evaluated after 24 hours, 2 days, 3 or 4 days and 7 days for collagenase activity and also for the growth of the bacteria. The bacteria from the hides secreted collagenase into the medium as they grew to degrade the collagen in the azocoll medium and collagenase activity was determined by visual inspection of the clear zone around the bacteria

Compound: O=C([O-])CN(CCN(CC(=O)O)CC(=O)O)CC(=O)[O-].[Na+].[Na+] [Na2EDTA, ethylenediaminetetraacetic acid disodium salt]
- Growth/Days 1 ([1]; Conc. 0.025%): ++++
- Growth/Days 2 ([1]; Conc. 0.025%): ++++
- Growth/Days 4 ([1]; Conc. 0.025%): ++++
- Growth/Days 1 ([1]; Conc. 0.05%): ++++
- Growth/Days 2 ([1]; Conc. 0.05%): ++++
- Growth/Days 4 ([1]; Conc. 0.05%): ++++
- Growth/Days 1 ([1]; Conc. 0.075%): ++++
- Growth/Days 2 ([1]; Conc. 0.075%): ++++
- Growth/Days 4 ([1]; Conc. 0.075%): ++++
- Growth/Days 1 ([1]; Conc. 0.1%): ++
- Growth/Days 2 ([1]; Conc. 0.1%): ++++
- Growth/Days 4 ([1]; Conc. 0.1%): ++++
- Growth/Days 1 ([1]; Conc. 0.2%): 0
- Growth/Days 2 ([1]; Conc. 0.2%): +++
- Growth/Days 4 ([1]; Conc. 0.2%): ++++
- Growth/Days 1 ([1]; Conc. 0.3%): 0
- Growth/Days 2 ([1]; Conc. 0.3%): +++
- Growth/Days 4 ([1]; Conc. 0.3%): ++++
- Growth/Days 1 ([1]; Conc. 0.4%): 0
- Growth/Days 2 ([1]; Conc. 0.4%): +++
- Growth/Days 4 ([1]; Conc. 0.4%): ++++
- Growth/Days 1 ([1]; Conc. 0.5%): 0
- Growth/Days 2 ([1]; Conc. 0.5%): +++
- Growth/Days 4 ([1]; Conc. 0.5%): ++++
- Collagenase Activity/Days 1 ([2]; Conc. 0.025%): ++++
- Collagenase Activity/Days 2 ([2]; Conc. 0.025%): ++++
- Collagenase Activity/Days 4 ([2]; Conc. 0.025%): ++++
- Collagenase Activity/Days 7 ([2]; Conc. 0.025%): ++++
- Collagenase Activity/Days 1 ([2]; Conc. 0.05%): 0
- Collagenase Activity/Days 2 ([2]; Conc. 0.05%): +++
- Collagenase Activity/Days 4 ([2]; Conc. 0.05%): ++++
- Collagenase Activity/Days 7 ([2]; Conc. 0.05%): ++++
- Collagenase Activity/Days 1 ([2]; Conc. 0.075%): +
- Collagenase Activity/Days 2 ([2]; Conc. 0.075%): +++
- Collagenase Activity/Days 4 ([2]; Conc. 0.075%): ++++
- Collagenase Activity/Days 7 ([2]; Conc. 0.075%): ++++
- Collagenase Activity/Days 1 ([2]; Conc. 0.1%): 0
- Collagenase Activity/Days 2 ([2]; Conc. 0.1%): +
- Collagenase Activity/Days 4 ([2]; Conc. 0.1%): +++
- Collagenase Activity/Days 7 ([2]; Conc. 0.1%): +++
- Collagenase Activity/Days 1 ([2]; Conc. 0.2%): 0
- Collagenase Activity/Days 2 ([2]; Conc. 0.2%): 0
- Collagenase Activity/Days 4 ([2]; Conc. 0.2%): 0
- Collagenase Activity/Days 7 ([2]; Conc. 0.2%): +
- Collagenase Activity/Days 1 ([2]; Conc. 0.3%): 0
- Collagenase Activity/Days 2 ([2]; Conc. 0.3%): 0
- Collagenase Activity/Days 4 ([2]; Conc. 0.3%): 0
- Collagenase Activity/Days 7 ([2]; Conc. 0.3%): +
- Collagenase Activity/Days 1 ([2]; Conc. 0.4%): 0
- Collagenase Activity/Days 2 ([2]; Conc. 0.4%): 0
- Collagenase Activity/Days 4 ([2]; Conc. 0.4%): 0
- Collagenase Activity/Days 7 ([2]; Conc. 0.4%): 0
- Collagenase Activity/Days 1 ([2]; Conc. 0.5%): 0
- Collagenase Activity/Days 2 ([2]; Conc. 0.5%): 0
- Collagenase Activity/Days 4 ([2]; Conc. 0.5%): 0
- Collagenase Activity/Days 7 ([2]; Conc. 0.5%): 0

Compound: O=C([O-])CN(CCN(CC(=O)[O-])CC(=O)O)CC(=O)[O-].[Na+].[Na+].[Na+] [Na3EDTA, ethylenediaminetetraacetic acid trisodium salt]
- Growth/Days 1 ([1]; Conc. 0.025%): ++++
- Growth/Days 2 ([1]; Conc. 0.025%): ++++
- Growth/Days 4 ([1]; Conc. 0.025%): ++++
- Growth/Days 1 ([1]; Conc. 0.05%): ++++
- Growth/Days 2 ([1]; Conc. 0.05%): ++++
- Growth/Days 4 ([1]; Conc. 0.05%): ++++
- Growth/Days 1 ([1]; Conc. 0.075%): ++++
- Growth/Days 2 ([1]; Conc. 0.075%): ++++
- Growth/Days 4 ([1]; Conc. 0.075%): ++++
- Growth/Days 1 ([1]; Conc. 0.1%): ++++
- Growth/Days 2 ([1]; Conc. 0.1%): ++++
- Growth/Days 4 ([1]; Conc. 0.1%): ++++
- Growth/Days 1 ([1]; Conc. 0.2%): ++++
- Growth/Days 2 ([1]; Conc. 0.2%): ++++
- Growth/Days 4 ([1]; Conc. 0.2%): ++++
- Growth/Days 1 ([1]; Conc. 0.3%): +++
- Growth/Days 2 ([1]; Conc. 0.3%): +++
- Growth/Days 4 ([1]; Conc. 0.3%): +++
- Growth/Days 1 ([1]; Conc. 0.4%): ++++
- Growth/Days 2 ([1]; Conc. 0.4%): ++++
- Growth/Days 4 ([1]; Conc. 0.4%): ++++
- Growth/Days 1 ([1]; Conc. 0.5%): ++
- Growth/Days 2 ([1]; Conc. 0.5%): ++++
- Growth/Days 4 ([1]; Conc. 0.5%): ++++
- Collagenase Activity/Days 1 ([2]; Conc. 0.025%): ++++
- Collagenase Activity/Days 2 ([2]; Conc. 0.025%): ++++
- Collagenase Activity/Days 4 ([2]; Conc. 0.025%): ++++
- Collagenase Activity/Days 7 ([2]; Conc. 0.025%): ++++
- Collagenase Activity/Days 1 ([2]; Conc. 0.05%): ++
- Collagenase Activity/Days 2 ([2]; Conc. 0.05%): +++
- Collagenase Activity/Days 4 ([2]; Conc. 0.05%): ++++
- Collagenase Activity/Days 7 ([2]; Conc. 0.05%): ++++
- Collagenase Activity/Days 1 ([2]; Conc. 0.075%): 0
- Collagenase Activity/Days 2 ([2]; Conc. 0.075%): +
- Collagenase Activity/Days 4 ([2]; Conc. 0.075%): +++
- Collagenase Activity/Days 7 ([2]; Conc. 0.075%): ++++
- Collagenase Activity/Days 1 ([2]; Conc. 0.1%): 0
- Collagenase Activity/Days 2 ([2]; Conc. 0.1%): +
- Collagenase Activity/Days 4 ([2]; Conc. 0.1%): +++
- Collagenase Activity/Days 7 ([2]; Conc. 0.1%): +++
- Collagenase Activity/Days 1 ([2]; Conc. 0.2%): 0
- Collagenase Activity/Days 2 ([2]; Conc. 0.2%): 0
- Collagenase Activity/Days 4 ([2]; Conc. 0.2%): ++
- Collagenase Activity/Days 7 ([2]; Conc. 0.2%): +++
- Collagenase Activity/Days 1 ([2]; Conc. 0.3%): 0
- Collagenase Activity/Days 2 ([2]; Conc. 0.3%): 0
- Collagenase Activity/Days 4 ([2]; Conc. 0.3%): +
- Collagenase Activity/Days 7 ([2]; Conc. 0.3%): ++
- Collagenase Activity/Days 1 ([2]; Conc. 0.4%): 0
- Collagenase Activity/Days 2 ([2]; Conc. 0.4%): 0
- Collagenase Activity/Days 4 ([2]; Conc. 0.4%): 0
- Collagenase Activity/Days 7 ([2]; Conc. 0.4%): +
- Collagenase Activity/Days 1 ([2]; Conc. 0.5%): 0
- Collagenase Activity/Days 2 ([2]; Conc. 0.5%): 0
- Collagenase Activity/Days 4 ([2]; Conc. 0.5%): 0
- Collagenase Activity/Days 7 ([2]; Conc. 0.5%): +

Compound: O=C([O-])CN(CCN(CC(=O)[O-])CC(=O)[O-])CC(=O)[O-].[Na+].[Na+].[Na+].[Na+] [Na4EDTA, ethylenediaminetetraacetic acid tetrasodium salt]
- Growth/Days 1 ([1]; Conc. 0.025%): ++++
- Growth/Days 2 ([1]; Conc. 0.025%): ++++
- Growth/Days 4 ([1]; Conc. 0.025%): ++++
- Growth/Days 1 ([1]; Conc. 0.05%): ++++
- Growth/Days 2 ([1]; Conc. 0.05%): ++++
- Growth/Days 4 ([1]; Conc. 0.05%): ++++
- Growth/Days 1 ([1]; Conc. 0.075%): ++++
- Growth/Days 2 ([1]; Conc. 0.075%): ++++
- Growth/Days 4 ([1]; Conc. 0.075%): ++++
- Growth/Days 1 ([1]; Conc. 0.1%): ++++
- Growth/Days 2 ([1]; Conc. 0.1%): ++++
- Growth/Days 4 ([1]; Conc. 0.1%): ++++
- Growth/Days 1 ([1]; Conc. 0.2%): ++++
- Growth/Days 2 ([1]; Conc. 0.2%): ++++
- Growth/Days 4 ([1]; Conc. 0.2%): ++++
- Growth/Days 1 ([1]; Conc. 0.3%): ++++
- Growth/Days 2 ([1]; Conc. 0.3%): ++++
- Growth/Days 4 ([1]; Conc. 0.3%): ++++
- Growth/Days 1 ([1]; Conc. 0.4%): ++++
- Growth/Days 2 ([1]; Conc. 0.4%): ++++
- Growth/Days 4 ([1]; Conc. 0.4%): ++++
- Growth/Days 1 ([1]; Conc. 0.5%): ++++
- Growth/Days 2 ([1]; Conc. 0.5%): ++++
- Growth/Days 4 ([1]; Conc. 0.5%): ++++
- Collagenase Activity/Days 1 ([2]; Conc. 0.025%): ++++
- Collagenase Activity/Days 2 ([2]; Conc. 0.025%): ++++
- Collagenase Activity/Days 4 ([2]; Conc. 0.025%): ++++
- Collagenase Activity/Days 7 ([2]; Conc. 0.025%): ++++
- Collagenase Activity/Days 1 ([2]; Conc. 0.05%): ++++
- Collagenase Activity/Days 2 ([2]; Conc. 0.05%): ++++
- Collagenase Activity/Days 4 ([2]; Conc. 0.05%): ++++
- Collagenase Activity/Days 7 ([2]; Conc. 0.05%): ++++
- Collagenase Activity/Days 1 ([2]; Conc. 0.075%): +
- Collagenase Activity/Days 2 ([2]; Conc. 0.075%): ++
- Collagenase Activity/Days 4 ([2]; Conc. 0.075%): +++
- Collagenase Activity/Days 7 ([2]; Conc. 0.075%): ++++
- Collagenase Activity/Days 1 ([2]; Conc. 0.1%): 0
- Collagenase Activity/Days 2 ([2]; Conc. 0.1%): +
- Collagenase Activity/Days 4 ([2]; Conc. 0.1%): ++
- Collagenase Activity/Days 7 ([2]; Conc. 0.1%): +++
- Collagenase Activity/Days 1 ([2]; Conc. 0.2%): 0
- Collagenase Activity/Days 2 ([2]; Conc. 0.2%): +
- Collagenase Activity/Days 4 ([2]; Conc. 0.2%): ++
- Collagenase Activity/Days 7 ([2]; Conc. 0.2%): +++
- Collagenase Activity/Days 1 ([2]; Conc. 0.3%): 0
- Collagenase Activity/Days 2 ([2]; Conc. 0.3%): +
- Collagenase Activity/Days 4 ([2]; Conc. 0.3%): +
- Collagenase Activity/Days 7 ([2]; Conc. 0.3%): +++
- Collagenase Activity/Days 1 ([2]; Conc. 0.4%): 0
- Collagenase Activity/Days 2 ([2]; Conc. 0.4%): +
- Collagenase Activity/Days 4 ([2]; Conc. 0.4%): +
- Collagenase Activity/Days 7 ([2]; Conc. 0.4%): +++
- Collagenase Activity/Days 1 ([2]; Conc. 0.5%): 0
- Collagenase Activity/Days 2 ([2]; Conc. 0.5%): 0
- Collagenase Activity/Days 7 ([2]; Conc. 0.5%): ++
